Source: PubChem BioAssay (NCI)
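The concentration for 50% growth inhibition is given as GI50. TGI is the concentration that stops growth completely.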

What was measured:
Experiment in all cases: NCI tumour cell line growth inhibition, 384-well format
[1] = test system: UACC-62 melanoma
[2] = test system: MDA-MB-231 breast
[3] = test system: SW-620 colon
[4] = test system: DU-145 prostate
[5] = test system: IGROV1 ovarian
[6] = test system: SN12C renal
[7] = test system: OVCAR-3 ovarian
[8] = test system: SF-295 CNS
[9] = test system: HL-60(TB) leukemia
[10] = test system: K-562 leukemia
[11] = test system: HOP-62 NSCLC
[12] = test system: HT29 colon
[13] = test system: BT-549 breast
[14] = test system: RXF 393 renal
[15] = test system: HOP-92 NSCLC
[16] = test system: SR leukemia
[17] = test system: SNB-75 CNS
[18] = test system: SK-MEL-28 melanoma
[19] = test system: MCF7 breast
[20] = test system: ACHN renal
[21] = test system: SK-OV-3 ovarian
[22] = test system: A498 renal
[23] = test system: HS 578T breast
[24] = test system: MDA-MB-468 breast
[25] = test system: SK-MEL-2 melanoma
[26] = test system: UO-31 renal
[27] = test system: MALME-3M melanoma
[28] = test system: MOLT-4 leukemia
[29] = test system: NCI-H522 lung
[30] = test system: HCT-15 colon
[31] = test system: 786-0 renal
[32] = test system: COLO 205 colon
[33] = test system: EKVX NSCLC
[34] = test system: SF-268 CNS
[35] = test system: SK-MEL-5 melanoma
[36] = test system: NCI-H460 NSCLC
[37] = test system: NCI-H322M lung
[38] = test system: NCI-H226 lung
[39] = test system: HCT-116 colon
[40] = test system: LOX IMVI melanoma
[41] = test system: MDA-MB-435 melanoma
[42] = test system: KM12 colon
[43] = test system: M14 melanoma
[44] = test system: SF-539 CNS
[45] = test system: PC-3 prostate
[46] = test system: NCI-H23 lung
[47] = test system: T-47D breast
[48] = test system: NCI/ADR-RES ovarian
[49] = test system: OVCAR-4 ovarian
[50] = test system: TK-10 renal
[51] = test system: HCC-2998 colon
[52] = test system: A549 NSCLC
[53] = test system: SNB-19 CNS
[54] = test system: UACC-257 melanoma
[55] = test system: OVCAR-5 ovarian
[56] = test system: U251 glioblastoma
[57] = test system: CAKI-1 renal
[58] = test system: CCRF-CEM leukemia
[59] = test system: RPMI-8226 leukemia

`Cc1ccc(/C=N/NC(=O)c2ccccc2Oc2ccccc2)o1` was tested, and the GI50 [1] was 4.66 µM, the TGI [1] was 16.5 µM and the GI50 [2] was 18.3 µM. It also gave a TGI [2] of 34 µM, a GI50 [3] of 19.2 µM and a TGI [3] of 33.4 µM. It also gave a GI50 [4] of 6.77 µM, a TGI [4] of 19.9 µM and a GI50 [5] of 2490 nM. For the same compound, the TGI [5] was 10.7 µM, the GI50 [6] was 4.87 µM and the TGI [6] was 17 µM. The GI50 [7] was 16.3 µM, the TGI [7] was 30.4 µM and the GI50 [8] was 4.52 µM. For the same compound, the TGI [8] was 16.4 µM, the GI50 [9] was 19.4 µM and the TGI [9] was 33.6 µM. It also gave a GI50 [10] of 3.71 µM, a TGI [10] of 13.5 µM and a GI50 [11] of 6.21 µM. It also gave a TGI [11] of 19 µM, a GI50 [12] of 17.9 µM and a TGI [12] of 32 µM. For the same compound, the GI50 [13] was 19.5 µM, the TGI [13] was 33.7 µM and the GI50 [14] was 16.9 µM. For the same compound, the TGI [14] was 30.6 µM, the GI50 [15] was 4.72 µM and the TGI [15] was 16.4 µM. The GI50 [16] was 1730 nM, the TGI [16] was 3.24 µM and the GI50 [17] was 17.1 µM. For the same compound, the TGI [17] was 31.1 µM, the GI50 [18] was 18.6 µM and the TGI [18] was 32.6 µM. The GI50 [19] was 4.85 µM, the TGI [19] was 17.1 µM and the GI50 [20] was 3.35 µM. The TGI [20] was 12.2 µM, the GI50 [21] was 16.8 µM and the TGI [21] was 31.2 µM. For the same compound, the GI50 [22] was 17.3 µM, the TGI [22] was 31.2 µM and the GI50 [23] was 16.6 µM. The TGI [23] was 30.3 µM, the GI50 [24] was 1880 nM and the TGI [24] was 3.84 µM. The GI50 [25] was 3.99 µM, the TGI [25] was 7.04 µM and the GI50 [26] was 3.78 µM. For the same compound, the TGI [26] was 13.1 µM, the GI50 [27] was 18.6 µM and the TGI [27] was 32.7 µM. The GI50 [28] was 1750 nM, the TGI [28] was 3.2 µM and the GI50 [29] was 16.2 µM. It also gave a TGI [29] of 29.7 µM, a GI50 [30] of 17.3 µM and a TGI [30] of 31.6 µM. It also gave a GI50 [31] of 8.44 µM, a TGI [31] of 20.8 µM and a GI50 [32] of 5.62 µM. For the same compound, the TGI [32] was 17.3 µM, the GI50 [33] was 18.1 µM and the TGI [33] was 32.5 µM. It also gave a GI50 [34] of 18.9 µM, a TGI [34] of 33.3 µM and a GI50 [35] of 17.1 µM. It also gave a TGI [35] of 30.9 µM, a GI50 [36] of 16.6 µM and a TGI [36] of 30.5 µM. It also gave a GI50 [37] of 19.1 µM, a TGI [37] of 34.5 µM and a GI50 [38] of 6.68 µM. It also gave a TGI [38] of 19.2 µM, a GI50 [39] of 17.7 µM and a TGI [39] of 31.6 µM. It also gave a GI50 [40] of 19.5 µM, a TGI [40] of 33.7 µM and a GI50 [41] of 18.8 µM. For the same compound, the TGI [41] was 32.9 µM, the GI50 [42] was 829 nM and the TGI [42] was 19.5 µM. The GI50 [43] was 5.39 µM, the TGI [43] was 18 µM and the GI50 [44] was 18.1 µM. It also gave a TGI [44] of 32 µM, a GI50 [45] of 17.6 µM and a TGI [45] of 32 µM. It also gave a GI50 [46] of 4.32 µM, a TGI [46] of 16.1 µM and a GI50 [47] of 16.2 µM. For the same compound, the TGI [47] was 29.8 µM, the GI50 [48] was 17.5 µM and the TGI [48] was 31.7 µM. For the same compound, the GI50 [49] was 10.7 µM, the TGI [49] was 24.4 µM and the GI50 [50] was 4.22 µM. It also gave a TGI [50] of 16.7 µM, a GI50 [51] of 17.8 µM and a TGI [51] of 31.7 µM. For the same compound, the GI50 [52] was 17.9 µM, the TGI [52] was 31.9 µM and the GI50 [53] was 12.1 µM. It also gave a TGI [53] of 25 µM, a GI50 [54] of 17.3 µM and a TGI [54] of 31.2 µM. It also gave a GI50 [55] of 6.64 µM, a TGI [55] of 20 µM and a GI50 [56] of 18 µM. For the same compound, the TGI [56] was 32 µM, the GI50 [57] was 17.6 µM and the TGI [57] was 31.6 µM. The GI50 [58] was 2000 nM, the TGI [58] was 4.13 µM and the GI50 [59] was 18.6 µM. It also gave a TGI [59] of 32.7 µM.
